# In patent publication US10005739B2, “Quinazolinone and isoquinolinone derivative” (CHUGAI SEIYAKU KABUSHIKI KAISHA, priority 2013, dated 2018):
# Target: DDR1 (Homo sapiens (Human), UniProt Q08345)
# Assay: Measurement of DDR1 enzyme inhibitory activity (phosphorylation of biotinylated peptide, time-resolved fluorescence)
# Format: biochemical
# Conditions: human DDR1 enzyme, biotinylated peptide phosphorylation; read-out: DDR1 enzyme inhibition assay IC50
# Method: 1. Measurement of DDR1 Enzyme Inhibitory Activity
# The DDR1 enzyme inhibitory activity was determined with human DDR1 enzyme prepared using the baculovirus expression system, based on the inhibitory activity of phosphorylation of a biotinylated peptide ([…]) by the enzyme. The phosphorylated biotinylated peptide was detected using time-resolved fluorescence, with an anti-phosphorylated tyrosine antibody conjugated with europium cryptate and streptavidin conjugated with XL665 which is a derivative of allophycocyanin.
# Chain of DDR1 (Q08345 19-913): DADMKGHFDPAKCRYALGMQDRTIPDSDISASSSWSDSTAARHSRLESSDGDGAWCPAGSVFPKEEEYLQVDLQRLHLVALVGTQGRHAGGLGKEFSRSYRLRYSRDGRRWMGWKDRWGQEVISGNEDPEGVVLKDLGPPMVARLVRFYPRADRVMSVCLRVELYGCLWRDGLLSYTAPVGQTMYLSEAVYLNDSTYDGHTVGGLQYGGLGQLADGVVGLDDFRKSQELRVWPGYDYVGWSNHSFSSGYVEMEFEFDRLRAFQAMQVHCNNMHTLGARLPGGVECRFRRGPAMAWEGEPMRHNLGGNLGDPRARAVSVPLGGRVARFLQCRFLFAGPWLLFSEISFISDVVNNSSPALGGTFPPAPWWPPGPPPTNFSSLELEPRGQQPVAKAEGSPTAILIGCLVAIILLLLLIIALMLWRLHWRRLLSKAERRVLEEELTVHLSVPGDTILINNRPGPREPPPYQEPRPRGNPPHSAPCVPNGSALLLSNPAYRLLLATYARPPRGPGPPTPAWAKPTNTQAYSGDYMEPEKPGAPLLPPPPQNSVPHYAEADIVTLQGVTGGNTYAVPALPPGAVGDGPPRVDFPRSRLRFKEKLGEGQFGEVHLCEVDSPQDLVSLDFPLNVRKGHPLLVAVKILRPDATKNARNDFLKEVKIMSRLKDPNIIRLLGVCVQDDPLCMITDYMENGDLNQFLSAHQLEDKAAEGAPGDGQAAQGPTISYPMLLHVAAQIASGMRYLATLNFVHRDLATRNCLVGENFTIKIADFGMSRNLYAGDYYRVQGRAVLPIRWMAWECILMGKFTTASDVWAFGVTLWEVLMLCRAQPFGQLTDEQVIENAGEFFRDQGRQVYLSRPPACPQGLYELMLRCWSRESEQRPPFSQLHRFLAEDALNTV
row,SMILES,IC50 [nM]
1,"CCSc1ccc(Cl)cc1Nn1cnc2cnc(Cl)cc2c1=O [Compound A-14, 6-Chloro-3-(5-chloro-2-ethylsulfanylanilino)pyrido[3,4-d]pyrimidin-4-one]",130
2,"CCSc1ccc(Cl)cc1Nn1cnc2c(Br)cc(C)cc2c1=O [Compound A-1, 8-Bromo-3-(5-chloro-2-ethylsulfanylanilino)-6-methylquinazolin-4-one]",170
3,"CCS(=O)(=O)c1ccc(Cl)cc1Nn1cnc2cc(C)c(Br)cc2c1=O [Compound A-8, 6-Bromo-3-(5-chloro-2-ethylsulfonylanilino)-7-methylquinazolin-4-one]",550
4,"CCCc1ccc2ncn(Nc3cc(Cl)ccc3SCC)c(=O)c2c1 [Compound A-54, 3-(5-Chloro-2-ethylsulfanylanilino)-6-propylquinazolin-4-one]",330
5,"CCS(=O)(=O)c1ccc(Cl)cc1Nn1cnc2cc3c(cc2c1=O)OCO3 [Compound A-41, 7-(5-Chloro-2-ethylsulfonylanilino)-[1,3]dioxolo[4,5-g]quinazolin-8-one]",1950
6,"CCSc1ccc(Cl)cc1Nn1cnc2c(Br)cc(C(F)(F)F)cc2c1=O [Compound A-32, 8-Bromo-3-(5-chloro-2-ethylsulfanylanilino)-6-(trifluoromethyl)quinazolin-4-one]",290
7,"CCSc1ccc(Cl)cc1Nn1cnc2ncc(C(F)(F)F)cc2c1=O [Compound A-23, 3-(5-Chloro-2-ethylsulfanylanilino)-6-(trifluoromethyl)pyrido[2,3-d]pyrimidin-4-one]",160
8,"CCSc1ccc(Cl)cc1Nn1cnc2ccc(OC)cc2c1=O [Compound A-34, 3-(5-Chloro-2-ethylsulfanylanilino)-6-methoxyquinazolin-4-one]",68
9,"CCSc1ccc(Cl)cc1Nn1cnc2cc3c(cc2c1=O)OCCO3 [Compound A-42, 3-(5-Chloro-2-ethylsulfanylanilino)-7,8-dihydro-[1,4]dioxino[2,3-g]quinazolin-4-one]",3100
10,"CCSc1ccc(Cl)cc1Nn1cnc2ccc(I)cc2c1=O [Compound A-60, 3-(5-Chloro-2-ethylsulfanylanilino)-6-iodoquinazolin-4-one]",220
11,"CCS(=O)(=O)c1ccc(Cl)cc1Nn1cnc2ncc(C#N)cc2c1=O [Compound A-18, 3-(5-Chloro-2-ethylsulfonylanilino)-4-oxopyrido[2,3-d]pyrimidine-6-carbonitrile]",1710
12,"CCSc1ccc(Cl)cc1Nn1cnc2ccc(F)cc2c1=O [Compound A-28, 3-(5-Chloro-2-ethylsulfanylanilino)-6-fluoroquinazolin-4-one]",88
13,"CCSc1ccc(Cl)cc1Nn1cnc2cc3c(cc2c1=O)OCO3 [Compound A-40, 7-(5-Chloro-2-ethylsulfanylanilino)-[1,3]dioxolo[4,5-g]quinazolin-8-one]",350
14,"CCCc1ccc2ncn(Nc3cc(Cl)ccc3S(=O)(=O)CC)c(=O)c2c1 [Compound A-55, 3-(5-Chloro-2-ethylsulfonylanilino)-6-propylquinazolin-4-one]",240
15,"CCS(=O)(=O)c1ccc(Cl)cc1Nn1cnc2cnc(OC)cc2c1=O [Compound A-22, 3-(5-Chloro-2-ethylsulfonylanilino)-6-methoxypyrido[3,4-d]pyrimidin-4-one]",1930
16,"CCSc1ccc(Cl)cc1Nn1cnc2cc(Br)c(C)cc2c1=O [Compound A-5, 7-Bromo-3-(5-chloro-2-ethylsulfanylanilino)-6-methylquinazolin-4-one]",880
17,"CCSc1ccc(Cl)cc1Nn1cnc2c(Br)cc(OC(F)(F)F)cc2c1=O [Compound A-46, 8-Bromo-3-(5-chloro-2-ethylsulfanylanilino)-6-(trifluoromethoxy)quinazolin-4-one]",420
18,"CCS(=O)(=O)c1ccc(Cl)cc1Nn1cnc2ccc(F)cc2c1=O [Compound A-29, 3-(5-Chloro-2-ethylsulfonylanilino)-6-fluoroquinazolin-4-one]",340
19,"CCSc1ccc(Cl)cc1Nn1cnc2ccc(OC(F)(F)F)cc2c1=O [Compound A-44, 3-(5-Chloro-2-ethylsulfanylanilino)-6-(trifluoromethoxy)quinazolin-4-one]",290

# Further lines, results first:
row,IC50 [nM],SMILES
1,1470,"N#Cc1ccc(S(=O)(=O)c2ccccc2)c(Nn2cnc3ccc(C(F)(F)F)cc3c2=O)c1 [Compound B-16, 4-(Benzenesulfonyl)-3-[[4-oxo-6-(trifluoromethyl)quinazolin-3-yl]amino]benzonitrile]"
2,290,"CCS(=O)(=O)c1ccc(OC)cc1Nn1cnc2ccc(OC(F)(F)F)cc2c1=O [Compound C-28, 3-(2-Ethylsulfonyl-5-methoxyanilino)-6-(trifluoromethoxy)quinazolin-4-one]"
3,810,"CCS(=O)(=O)c1ccc([N+](=O)[O-])cc1Cn1ccc2ccc(OC(F)(F)F)cc2c1=O [Compound F-9, 2-[(2-Ethylsulfonyl-5-nitrophenyl)methyl]-7-(trifluoromethoxy)isoquinolin-1-one]"
4,150,"Cc1cc(Br)c2ncn(Nc3cc(Cl)ccc3Sc3ccccc3)c(=O)c2c1 [Compound B-12, 8-Bromo-3-(5-chloro-2-phenylsulfanylanilino)-6-methylquinazolin-4-one]"
5,110,"CCS(=O)(=O)c1cc(Cl)c(Cl)cc1Nn1cnc2ccc(C(F)(F)F)cc2c1=O [Compound C-41, 3-(4,5-Dichloro-2-ethylsulfonylanilino)-6-(trifluoromethyl)quinazolin-4-one]"
6,2360,"CCSc1ncc(Cl)cc1Nn1cnc2c(Br)cccc2c1=O [Compound D-1, 8-Bromo-3-[(5-chloro-3-ethylsulfanylpyridin-3-yl)amino]quinazolin-4-one]"
7,250,"CCS(=O)(=O)c1ccc(C#N)cc1Nn1cnc2cc(C)c(Br)cc2c1=O [Compound C-6, 3-[(6-Bromo-7-methyl-4-oxoquinazolin-3-yl)amino]-4-ethylsulfonylbenzonitrile]"
8,340,"CCSc1ccc(F)cc1Nn1cnc2c(Br)cc(OC(F)(F)F)cc2c1=O [Compound C-19, 8-Bromo-3-(2-ethylsulfanyl-5-fluoroanilino)-6-(trifluoromethoxy)quinazolin-4-one]"
9,170,"CCSc1ccc(C(F)(F)F)cc1Nn1cnc2c(Br)cc(C(F)(F)F)cc2c1=O [Compound C-34, 8-Bromo-3-[2-ethylsulfanyl-5-(trifluoromethyl)anilino]-6-(trifluoromethyl)quinazolin-4-one]"
10,490,"CCS(=O)(=O)c1ccc([N+](=O)[O-])cc1Cn1ccc2ccc(C(F)(F)F)cc2c1=O [Compound F-6, 2-[(2-Ethylsulfonyl-5-nitrophenyl)methyl]-7-(trifluoromethyl)isoquinolin-1-one]"
11,130,"CCSc1ccc(C#N)cc1Nn1cnc2cc(C)c(Br)cc2c1=O [Compound C-5, 3-[(6-bromo-7-methyl-4-oxoquinazolin-3-yl)amino]-4-ethylsulfanylbenzonitrile]"
12,410,"CCCc1ccc(Cl)cc1Nn1cnc2ccc(OC(F)(F)F)cc2c1=O [Compound B-17, 3-(5-Chloro-2-propylanilino)-6-(trifluoromethoxy)quinazolin-4-one]"
13,330,"CCS(=O)(=O)c1cc(Cl)c(C#N)cc1Nn1cnc2ccc(C(F)(F)F)cc2c1=O [Compound C-43, 2-Chloro-4-ethylsulfonyl-5-[[4-oxo-6-(trifluoromethyl)quinazolin-3-yl]amino]benzonitrile]"
14,150,"CCS(=O)(=O)c1ccc(F)cc1Nn1cnc2c(Br)cc(OC(F)(F)F)cc2c1=O [Compound C-20, 8-Bromo-3-(2-ethylsulfonyl-5-fluoroanilino)-6-(trifluoromethoxy)quinazolin-4-one]"
15,290,"Cc1cc(Br)c2ncn(Nc3cc(Cl)ccc3S(=O)(=O)c3ccccc3)c(=O)c2c1 [Compound B-14, 3-[2-(Benzenesulfonyl)-5-chloroanilino]-8-bromo-6-methylquinazolin-4-one]"
16,160,"CCS(=O)(=O)c1ccc(C#N)cc1Nn1cnc2c(Br)cc(C)cc2c1=O [Compound C-2, 3-[(8-Bromo-6-methyl-4-oxoquinazolin-3-yl)amino]-4-ethylsulfonylbenzonitrile]"
17,450,"CCSc1cc(Cl)c(C#N)cc1Nn1cnc2ccc(C(F)(F)F)cc2c1=O [Compound C-42, 2-Chloro-4-ethylsulfanyl-5-[[4-oxo-6-(trifluoromethyl)quinazolin-3-yl]amino]benzonitrile]"
18,250,"CCS(=O)(=O)c1ccc(C#N)cc1Nn1cnc2cc(CN3CCNCC3)c(Br)cc2c1=O [Compound H-41, 3-[[6-Bromo-4-oxo-7-(piperazin-1-ylmethyl)quinazolin-3-yl]amino]-4-ethylsulfonylbenzonitrile]"
19,590,"CCSc1ccc(Cl)cc1Cn1cnc2c(Br)cc(C(F)(F)F)cc2c1=O [Compound E-9, 8-Bromo-3-[(5-chloro-2-ethylsulfanylphenyl)methyl]-6-(trifluoromethyl)quinazolin-4-one]"
20,450,"CCSc1ccc(Cl)cc1Cn1cnc2ccc(C(F)(F)F)cc2c1=O [Compound E-15, 3-[(5-Chloro-2-ethylsulfanylphenyl)methyl]-6-(trifluoromethyl)quinazolin-4-one]"
21,630,"CCS(=O)(=O)c1ccc(C#N)cc1Cn1cnc2ccc(C(F)(F)F)cc2c1=O [Compound E-28, 4-Ethylsulfonyl-3-[[4-oxo-6-(trifluoromethyl)quinazolin-3-yl]methyl]benzonitrile]"
22,150,"CCS(=O)(=O)c1ccc(Cl)cc1Cn1cnc2c(Br)c(C)c(Br)cc2c1=O [Compound E-17, 6,8-Dibromo-3-[(5-chloro-2-ethylsulfonylphenyl)methyl]-7-methylquinazolin-4-one]"

# Same assay, conditions: read-out: DDR1 enzyme inhibition assay IC50
row,IC50 [nM],SMILES
1,90,"CCS(=O)(=O)c1ccc(Cl)cc1Cn1cnc2c(Br)c(CN3CCNCC3)c(Br)cc2c1=O [Compound L-11, 6,8-Dibromo-3-[(5-chloro-2-ethylsulfonylphenyl)methyl]-7-(piperazin-1-ylmethyl)quinazolin-4-one]"
